The results in this text go back to paper PMC8786932, “Bicyclic azetidines target acute and chronic stages of Toxoplasma gondii by inhibiting parasite phenylalanyl t-RNA synthetase” (Nature Communications, 2022).

For data set [1], the system named is ex vivo T. gondii ME49-FLuc bradyzoites from tissue cysts of chronically infected mice. The data set can be described thus: Ex vivo bradyzoite treatment assay (plaque assay). The format is cell-based, Toxoplasma gondii. The settings on record: for growth of ex vivo bradyzoites at EC50: constant treatment, vs DMSO. As to the method: The brains from CBA/J mice chronically infected with the ME49-FLuc strain were harvested, homogenized, and tissue cysts isolated on Percoll gradients, as described previously[9],[27]. Following isolation, purified tissue cysts were treated with acid-pepsin solution ([…] sodium chloride (NaCl), 60 mM hydrochloric acid (HCl) and freshly made pepsin (0.1 mg/mL in 1xPBS) for 10 min at 37 °C. Following acid-pepsin treatment and addition of neutralization buffer (94 mM sodium carbonate (Na2CO3), liberated bradyzoites were equally distributed into 6-well plates with 5 mL culture media containing compounds or vehicle control (0.1–0.2% DMSO final concentration). Plates were incubated undisturbed for 12–14 days followed by fixation in 100% ethanol (ETOH) for 5 min at RT, rinsing with tap water, staining in 0.1% crystal violet solution for 10 min at RT, rinsing in water and air drying. Plaques were quantified on a Zeiss AxioObserver microscope equipped with a ×2.5 objective (Department of Molecular Microbiology Imaging Facility at the Washington University School of Medicine).

In data set [2] the test system is in vitro derived T. gondii ME49-FLuc bradyzoites. The data set can be described thus: Plaque assay of bradyzoites induced in vitro for 14 days. The format is cell-based, Toxoplasma gondii. The settings on record: Fig 5F, replicates. As to the method: To monitor the effects of compounds on more mature in vitro derived bradyzoites, ME49-Fluc tachyzoites were inoculated onto HFF monolayers grown in T25[2] flasks and bradyzoites were induced for 12 days in RPMI 1640 pH 8.2 at ambient CO2 and 37°C. Cultures were then treated with compounds at EC90 or 3XEC90 for another 2 days. At the end of 14 days, monolayers were scraped and passed through a 23 g needle to liberate cysts, followed by centrifugation (400 × g, 10 min, 4 °C). Pellets were resuspended with Pearce^TM streptavidin magnetic beads (Thermo Fisher) pre-coupled with biotinylated DBL (Vector laboratories) and incubated for 1 h at 4 °C. Beads were collected and washed twice using a magnetic stand, followed by treatment with 0.25 mg/ml trypsin for 10 min to liberate bradyzoites. Released bradyzoites were collected from the supernatant and counted using a hemocytometer. Bradyzoites were inoculated onto 6-well plates confluent with HFF monolayers and cultured for 14 days, followed by ethanol fixation and staining with 0.01% crystal violet. Plaques or foci of infection were imaged using an Axiovert 100 microscope equipped with an AxioCam color camera and analyzed by ImageJ.

The subject of data set [3] is in vitro induced T. gondii ME49-FLuc bradyzoite cysts. As to the kind of experiment: In vitro bradyzoite growth assay, cyst size (3 d induction + 2 d treatment). The format is cell-based, Toxoplasma gondii. Particulars: for Cyst size (individual cysts): area within cyst wall, measured in microns; for effect on cyst size: at the EC90 or 3xEC90, 2 days after 3 days induction. As to the method:
To monitor the effects of compounds on early bradyzoite differentiation, ME49-Fluc tachyzoites were inoculated onto HFF monolayers grown on coverslips in 24-well plates and allowed infect during a 2 h incubation in 3% DMEM (DMEM containing glutamine (10 mM), gentamycin (10 μg/mL,) and 3% FBS) at 37°C, 5% CO2. The medium was replaced with RPMI 1640 pH 8.2 and cells were cultured in ambient CO2 at 37°C for 3 days to induce bradyzoites. […] Samples were fixed and stained using biotinylated Dolichos biflorus lectin (DBL) (Vector Laboratories (#B-1035-5) […]) followed by Alexa Fluor 488 streptavidin (Thermo Fischer (#S11223) 1:1,000 dilution) and mouse mAb 8.25.8 anti-BAG1 (from Dr. Louis Wiess) (1:1,100)[56] followed by goat anti-mouse IgG conjugated to Alexa Fluor 568 (Thermo Fischer (#A-1104) 1:1,000). Samples were analyzed using a Zeiss AxioObserver Z1 equipped with Colibri LED illumination using a 40x EC Plan-Neofluar objective (N.A. 1.3) and images were captured using an ORCA-ER digital camera operated using ZEN v3.3 (Carl Zeiss). Cyst size was determined by measuring the area defined by the perimeter of the cyst wall as measured in microns.

A short description of the next data set: in vitro. It is filed as cell-based. The settings on record: human, Caco-2; for EC50: nuclei count, 44 h, top 20 μM; for selectivity ratio: EC50 host cell/EC50 T. gondii, read-out: Caco-2 fold selectivity. As to the method:
For the toxicity screen, compounds were tested in 96-well plates using all the wells as no edge affect was observed. Compounds were diluted to 40 μM (2x concentration in 10% DMEM, 0.4% DMSO) before step-wise, 3-fold dilution in 10% DMEM to create 10-dose series (20 μM to 0.001 μM). Host cells were plated in black, μ-Clear 96-well plates (Greiner Bio-One). We compared several lineages including HepG2 (human hepatocellular carcinoma (ATCC-HB-8065)), THP-1 (human monocytic tumor line), SH-SY5Y (human neuroblastoma (ATCC CRL-2266)), A549 (human lung carcinoma (ATCC CRM-CCL-185)) and Caco-2 (human intestinal adenocarcinoma (ATCC HTB-37)) and HFF (primary human foreskin fibroblast) obtained from the laboratory of John Boothroyd at Stanford University. Cells were maintained in culture media according to the formulations recommended by ATCC. Cells were plated at a density (ranging from of 5 × 10^3 to 2 × 10^4 cells/well (100 μL vol)) resulting in sub-confluent monolayers to allow expansion during the 2 day growth assay. THP-1 cells were treated with 10 ng/ml phorbol 12-myristate 13-acetate (PMA) for 24 h to differentiate into macrophages before compound addition. For all other cells, compounds were added at 6 h post seeding to host cells containing plates (200 μL final volume, 0.2% DMSO) and incubated in culture medium at 37 °C supplemented with 5% CO2. At 44 h post compound addition (50 h total growth time), culture media was aspirated and replaced with Live Imaging solution (ThermoFisher) supplemented with 10 μg/mL Hoeschst 33342 (Sigma) for 20 min at 37 °C. […] Alternatively, plates fixed with 4% formaldehyde for 10 min and stained with 10 μg/mL Hoeschst 33342 (Sigma) for 20 min and imaged using a Cytation 3 multi-mode imager (DAPI, 10x objective, 4 images/well) and nuclei quantified using the Gen5 imager software (v3.08). Assays were repeated with two technical replicates within each of two independent biological replicates.
All statistical analyses were conducted using Prism 9 (GraphPad Software, Inc.). Dose–response inhibition curves for parasite and host cell toxicity screens (EC50 values) were generated using (Log(inhibitor) vs. normalized response—Variable slope) function. […] For multiple comparisons, two-way ANOVA analysis function using either Sidák’s multiple comparisons test or Dunnett’s multiple comparisons test was applied as indicated.

The mark [4] stands for this setting: Constant treatment, Fig 5H top 4, replicates.
Where [5] appears, read: Washout, Fig 5H top 4, replicates.

Several values for one entry are separate records, joined by “and”; a condition that tells them apart may be missing. Identical values can stand only once. Where only a bound is given, the exact number is not on record here.

The term EC50 denotes the concentration that produces a half-maximal response. The low end stands for a more potent agent, the high end for a less potent agent. For `CN(C[C@@H]1[C@H](c2ccc(C#Cc3ccccc3)cc2)[C@@H]2CN(C(=O)Nc3ccc(OC4CC4)cc3)CCCCN12)S(C)(=O)=O` [BRD2987], the “Ex vivo bradyzoite plaques, normalised to DMSO = 100” value in data set [1] (setting [4]) is 0.5 and 0.7 and 3.9; in data set [1] (setting [5]), 6.522 and 15.2 and 18.2. Besides, the Plaque numbers in data set [2] (3xEC90) was 0 and 5; in data set [2] (EC90), 0. In addition, the “Cyst size (individual cysts)” value in data set [3] (3XEC90, 2 days) was 210 and 276.2 and 29.32 and 152.5 and 78.3 and 34.32 and 25.15 and 91.33 and 112.7 and 36.9 and 64.42 and 29.43 and 70.1 and 40.53 and 119.9 and 26.89 and 53.28 and 150.6 and 151.3 and 93.74; in data set [3] (EC90, 2 days), 236.6 and 67.46 and 53.54 and 238 and 123.3 and 64.95 and 39.29 and 138.8 and 102.4 and 187.5 and 285.6 and 103.1 and 283.5 and 243.7 and 89.72 and 170.5 and 68.94 and 144.9 and 116.2 and 59.27. Also, the “effect on cyst size” value in data set [3] is “significantly diminished cyst size”. In the data set “in vitro”, this molecule showed an EC50 of over 20 µM.

Consider `COc1ccc(NC(=O)N2CCCCN3[C@H](CO)[C@H](c4ccc(C#Cc5ccccc5)cc4)[C@@H]3C2)cc1` [BRD3444], for which the “Ex vivo bradyzoite plaques, normalised to DMSO = 100” value in data set [1] (setting [4]) was 0.5 and 0.2 and 1.9; in data set [1] (setting [5]), 1.087 and 0.00000000 and 9.1. Moreover, the Plaque numbers in data set [2] (3xEC90) is 0; in data set [2] (EC90), 5 and 0. In addition, the “Cyst size (individual cysts)” value in data set [3] (3XEC90, 2 days) was 55.84 and 108.4 and 18.78 and 55.57 and 227.1 and 49.46 and 37.83 and 273.6 and 101.6 and 179.3 and 249.8 and 34.55 and 88.71 and 51.38 and 34.99 and 140.8 and 42.55 and 30.36 and 52.48 and 90.45; in data set [3] (EC90, 2 days), 20.97 and 95.37 and 274.5 and 251.3 and 190.7 and 326.2 and 209.9 and 125.4 and 65.68 and 59.54 and 81.3 and 20.04 and 43.73 and 427 and 253.3 and 87.22 and 217.7 and 114.5 and 214.1 and 137.7. Moreover, the “effect on cyst size” value in data set [3] was “significantly diminished cyst size”. The selectivity ratio in “in vitro” worked out at 270. In addition, in the data set “in vitro”, the EC50 was 7.82 µM.

As for `COc1ccc(NC(=O)N2CCCCN3[C@H](CN(C)C)[C@H](c4ccc(C#Cc5ccccc5)cc4)[C@@H]3C2)cc1` [BRD7929], the “growth inhibition of ex vivo bradyzoites” value in data set [1] (3×EC90, constant treatment) came out at 99%; in data set [1] (EC90, constant treatment), 93%. Moreover, the effect after washout result in data set [1] (3×EC90, short-term (4 h) treatment then washout) is on record as “sustained following washout”. Further, the “Ex vivo bradyzoite plaques, normalised to DMSO = 100” value in data set [1] (setting [4]) was 1.0 and 0.2 and 1.9; in data set [1] (Washout, EC50 concentration, Fig 5I) it was 66.67 and 75.15 and 100; in data set [1] (Washout, EC90 concentration, Fig 5I) it was 83.91; in data set [1] (setting [5]), 2.174 and 0.37 and 0.00000000. Besides, the “growth of ex vivo bradyzoites at EC50” value in data set [1] (EC50 concentration) was “only partially reduced growth”. For the same molecule, the Plaque numbers in data set [2] (3xEC90) and in data set [2] (EC90) was 0 each time. The “Cyst size (individual cysts)” value was 70.79 and 76.24 and 90.26 and 38.16 and 85.34 and 130.5 and 42.83 and 30.86 and 19.37 and 49.32 and 117.9 and 50.48 and 21.2 and 120.5 and 75.85 and 64.97 and 70.16 and 108.7 and 69.23 and 113 in data set [3] (3XEC90, 2 days); 112.8 and 142 and 65 and 40.33 and 94.48 and 106.3 and 167.8 and 104.7 and 129.7 and 105.6 and 65.07 and 56.59 and 80.88 and 43.39 and 143.9 and 81.69 and 71.88 and 171.2 and 68.84 and 66.51 in data set [3] (EC90, 2 days). The “effect on cyst size” value in data set [3] is listed as “significantly diminished cyst size”. Further, in the data set “in vitro”, the midpoint of the response, the EC50, lay at 7 µM.

In the case of `COc1ccc(NC(=O)N2CCCCN3[C@H](CN(C)S(C)(=O)=O)[C@H](c4ccc(C#Cc5ccccc5)cc4)[C@@H]3C2)cc1` [BRD8494], the “Ex vivo bradyzoite plaques, normalised to DMSO = 100” value in data set [1] (setting [4]) was 0.5 and 0.2 and 1.9; in data set [1] (Constant, EC50 concentration, Fig 5J), 100 and 95.62 and 97.45; in data set [1] (Washout, 3xEC90 concentration, Fig 5J), 97.62 and 100; in data set [1] (Washout, EC50 concentration, Fig 5J) it was 100 and 96.6 and 91.18; in data set [1] (Washout, EC90 concentration, Fig 5J) it was 100; in data set [1] (setting [5]), 1.087 and 0.74 and 4.5. Further, the “growth of ex vivo bradyzoites at EC50” value in data set [1] (EC50 concentration) was “did not inhibit the growth”. The “growth of ex vivo bradyzoites at higher concentrations” value in data set [1] (EC90 and 3×EC90, constant treatment) is “nearly eliminated growth”. Besides, the Plaque numbers in data set [2] (3xEC90) and in data set [2] (EC90) was 0 in each case. Also, the “Cyst size (individual cysts)” value in data set [3] (3XEC90, 2 days) was 46.64 and 167.1 and 52.11 and 128.7 and 180.9 and 64.9 and 103 and 36.82 and 65.28 and 41.9 and 105.7 and 87.22 and 144.1 and 114.5 and 214.1 and 103.8 and 343.4 and 159.3 and 37.35 and 133.8; in data set [3] (EC90, 2 days), 112 and 360 and 182.2 and 110.4 and 32.16 and 37.14 and 75.73 and 23.46 and 145.9 and 108.1 and 145.1 and 279 and 170.3 and 246.7 and 83.16 and 29.6 and 216.4 and 92.48 and 64.36 and 16.16. In addition, the “effect on cyst size” value in data set [3] is on record as “significantly diminished cyst size”. Also, in “in vitro”, the selectivity ratio was 571. This molecule also displayed an EC50 in “in vitro” of over 20 µM.
